pKi: −log10 of the molar value.
Target: T1, Interstitial collagenase (Homo sapiens, UniProt P03956)
T1 sequence (P03956 whole entry): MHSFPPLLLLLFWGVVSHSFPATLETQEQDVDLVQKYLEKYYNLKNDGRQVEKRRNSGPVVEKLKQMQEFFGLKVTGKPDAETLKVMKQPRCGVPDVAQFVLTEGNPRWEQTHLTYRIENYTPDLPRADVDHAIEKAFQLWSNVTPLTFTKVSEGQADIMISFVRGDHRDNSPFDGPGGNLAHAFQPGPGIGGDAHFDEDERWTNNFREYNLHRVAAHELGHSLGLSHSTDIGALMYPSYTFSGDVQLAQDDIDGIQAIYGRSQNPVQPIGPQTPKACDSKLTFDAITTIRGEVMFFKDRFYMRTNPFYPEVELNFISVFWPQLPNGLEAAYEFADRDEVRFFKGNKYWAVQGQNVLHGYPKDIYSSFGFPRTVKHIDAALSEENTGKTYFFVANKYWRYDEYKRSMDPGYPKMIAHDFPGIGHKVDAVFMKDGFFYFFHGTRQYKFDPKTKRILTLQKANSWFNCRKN
Test: Inhibitory activity against matrix metalloprotease-1; No activity upto solubility limit

How did the pKi turn out when `C=C[C@@H]1OC(c2ccc(Br)cc2)=N[C@H]1Sc1ccccc1` [(4S,5S)-2-(4-Bromo-phenyl)-4-phenylsulfanyl-5-vinyl-4,5-dihydro-oxazole] was run?
Its pKi is less than 4.52.

From BindingDB's records for doi:10.1016/j.bmcl.2004.07.023 (North Dakota State University, 2004)
